Test results published in publication PMC9732152 (The Laryngoscope, 2022).
“Also recorded” adds a separate entry of the source. Where a name gives a salt, the structure may show the parent alone. Square brackets hold non-standard residues; d marks the D form. Peptide text beside a SMILES is read from it. * marks the point of attachment. Sta = CC(C)C[C@H](N)[C@@H](O)CC(=O)O; Isovaleryl = CC(C)CC(=O)*

Columns and labels:
porcine pepsin A = porcine pepsin A (Sus scrofa, UniProt P00791); type: binding; conditions: 100nM pepstatin-Alexa647 probe, 0.03U/ul porcine pepsin A, 37.5% DMSO, 0.1 M HCl pH 1
porcine pepsin A, sequence (P00791 60-385): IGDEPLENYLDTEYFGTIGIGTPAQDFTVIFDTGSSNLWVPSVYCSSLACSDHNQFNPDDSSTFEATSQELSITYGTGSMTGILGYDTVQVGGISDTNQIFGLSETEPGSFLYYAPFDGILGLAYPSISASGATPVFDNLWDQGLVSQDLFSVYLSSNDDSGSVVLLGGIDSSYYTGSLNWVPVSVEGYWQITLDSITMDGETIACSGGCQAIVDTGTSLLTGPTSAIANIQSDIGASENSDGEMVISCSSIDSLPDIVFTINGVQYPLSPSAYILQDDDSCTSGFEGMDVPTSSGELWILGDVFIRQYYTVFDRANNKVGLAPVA

porcine pepsin = porcine pepsin (Sus scrofa, UniProt P00791); assay: Fluorescence polarization peptic activity assay with casein-Alexa647 substrate; type: biochemical; conditions: for inhibition of pepsin (IC50): 200nM casein-Alexa647 probe, 0.01U/μL pepsin, 5% DMSO, 0.1 M HCl pH 1
porcine pepsin, sequence (P00791 60-385): as above

[1] = cited from earlier work
[2] = system: pepsin-mediated laryngeal damage; assay: Laryngopharyngeal reflux mouse model; type: in vivo, female Jackson A/J mice
pepsin = conditions: cited from earlier work
[3] = aerosol with saline (solvent) instillation
[4] = gavage with saline (solvent) instillation

Row | SMILES | binding to pepsin (porcine pepsin A) | inhibition of pepsin (IC50) (porcine pepsin) | known side effects and interactions [1] | IC50 for pepsin compared with the other inhibitors (porcine pepsin; comparison among the HIV protease inhibitors tested) | laryngeal epithelial histology/reactivity elicited by the drug itself [2, 3] | apoptosis in laryngeal epithelium ([2]; aerosol, inhaled mass 12mg/kg/day darunavir, pepsin-pH7 instillation) | laryngeal epithelial histology/reactivity elicited by the drug itself [2, 4] | affinity for pepsin (pepsin)
1 | CC(C)CN(C[C@@H](O)[C@H](Cc1ccccc1)NC(=O)O[C@H]1CO[C@H]2OCC[C@H]21)S(=O)(=O)c1ccc(N)cc1 [darunavir, darunavir ethanolate] | bound | inhibited pepsin at low micromolar concentrations; also recorded: low micromolar range | – | lowest IC50 | absent | no apoptosis was observed | mild reactivity (rare intraepithelial lymphocytes) | –
2 | CC(C)CN(C[C@@H](OP(=O)(O)O)[C@H](Cc1ccccc1)NC(=O)O[C@H]1CCOC1)S(=O)(=O)c1ccc(N)cc1 [fosamprenavir] | – | – | – | – | normal histology | – | normal histology | –
3 | CC(C)CC(=O)N[C@H](C(=O)N[C@H](C(=O)N[C@@H](CC(C)C)[C@@H](O)CC(=O)N[C@@H](C)C(=O)N[C@@H](CC(C)C)[C@@H](O)CC(=O)O)C(C)C)C(C)C [pepstatin, pepstatin A] (Isovaleryl-VV[Sta]A[Sta]-OH) | – | – | – | – | – | – | – | sub-nanomolar

Second part, led by results:

Row | binding to pepsin (porcine pepsin A) | SMILES | inhibition of pepsin (IC50) (porcine pepsin) | known side effects and interactions [1] | IC50 for pepsin compared with the other inhibitors (porcine pepsin; comparison among the HIV protease inhibitors tested) | laryngeal epithelial histology/reactivity elicited by the drug itself [2, 3] | apoptosis in laryngeal epithelium ([2]; aerosol, inhaled mass 12mg/kg/day darunavir, pepsin-pH7 instillation) | laryngeal epithelial histology/reactivity elicited by the drug itself [2, 4] | affinity for pepsin (pepsin)
4 | bound | CC(C)CN(C[C@@H](O)[C@H](Cc1ccccc1)NC(=O)O[C@H]1CCOC1)S(=O)(=O)c1ccc(N)cc1 [amprenavir] | inhibited pepsin at low micromolar concentrations; also recorded: low micromolar range | minimal side effects (diarrhea, nausea and vomiting) | – | – | – | – | –
5 | bound | CC(C)c1nc(CN(C)C(=O)N[C@H](C(=O)N[C@@H](Cc2ccccc2)C[C@H](O)[C@H](Cc2ccccc2)NC(=O)OCc2cncs2)C(C)C)cs1 [ritonavir] | – | minimal side effects (diarrhea, nausea and vomiting) | – | – | – | – | –
6 | bound | CC(C)(C)NC(=O)[C@@H]1C[C@@H]2CCCC[C@@H]2CN1C[C@@H](O)[C@H](Cc1ccccc1)NC(=O)[C@H](CC(N)=O)NC(=O)c1ccc2ccccc2n1 [saquinavir, saquinavir mesylate] | inhibited pepsin at low micromolar concentrations; also recorded: low micromolar range | QT prolongation, heart block, high blood lipids and liver problems | – | – | – | – | –
